Each block holds one molecule with its values, some of them ahead of it.
Legend:
[1] = target: T1, Sodium-dependent dopamine transporter (Homo sapiens, UniProt Q01959); assay: Displacement of [3H]WIN-35428 from human recombinant dopamine transporter expressed in CHO cells at 1000 nM; type: cell-based
[2] = target: T2, Sodium-dependent serotonin transporter (Homo sapiens, UniProt P31645); assay: Inhibition of 5HT uptake at human SERT expressed in human JAR cells at 1000 nM; type: cell-based
Target sequence in this assay (P31645 whole entry, looked up): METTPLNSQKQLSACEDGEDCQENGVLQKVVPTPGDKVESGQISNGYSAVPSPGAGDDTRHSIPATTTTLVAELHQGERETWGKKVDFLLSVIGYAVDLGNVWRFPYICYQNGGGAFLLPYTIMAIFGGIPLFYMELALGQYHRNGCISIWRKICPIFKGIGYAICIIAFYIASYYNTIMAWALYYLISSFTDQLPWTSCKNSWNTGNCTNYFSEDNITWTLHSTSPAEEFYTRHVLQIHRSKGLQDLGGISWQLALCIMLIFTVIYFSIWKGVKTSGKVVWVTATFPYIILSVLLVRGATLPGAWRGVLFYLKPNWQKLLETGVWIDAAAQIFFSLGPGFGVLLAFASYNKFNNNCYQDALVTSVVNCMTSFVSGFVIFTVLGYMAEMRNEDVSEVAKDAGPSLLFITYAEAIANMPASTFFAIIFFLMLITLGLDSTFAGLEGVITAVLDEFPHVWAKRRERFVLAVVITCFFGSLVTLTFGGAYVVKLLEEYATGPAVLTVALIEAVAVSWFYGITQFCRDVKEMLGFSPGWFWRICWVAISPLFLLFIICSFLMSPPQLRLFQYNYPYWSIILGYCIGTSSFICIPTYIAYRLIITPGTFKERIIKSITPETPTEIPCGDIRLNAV

[3] = target: T3, Sodium-dependent noradrenaline transporter (Homo sapiens, UniProt P23975)
T3 sequence (P23975 whole entry): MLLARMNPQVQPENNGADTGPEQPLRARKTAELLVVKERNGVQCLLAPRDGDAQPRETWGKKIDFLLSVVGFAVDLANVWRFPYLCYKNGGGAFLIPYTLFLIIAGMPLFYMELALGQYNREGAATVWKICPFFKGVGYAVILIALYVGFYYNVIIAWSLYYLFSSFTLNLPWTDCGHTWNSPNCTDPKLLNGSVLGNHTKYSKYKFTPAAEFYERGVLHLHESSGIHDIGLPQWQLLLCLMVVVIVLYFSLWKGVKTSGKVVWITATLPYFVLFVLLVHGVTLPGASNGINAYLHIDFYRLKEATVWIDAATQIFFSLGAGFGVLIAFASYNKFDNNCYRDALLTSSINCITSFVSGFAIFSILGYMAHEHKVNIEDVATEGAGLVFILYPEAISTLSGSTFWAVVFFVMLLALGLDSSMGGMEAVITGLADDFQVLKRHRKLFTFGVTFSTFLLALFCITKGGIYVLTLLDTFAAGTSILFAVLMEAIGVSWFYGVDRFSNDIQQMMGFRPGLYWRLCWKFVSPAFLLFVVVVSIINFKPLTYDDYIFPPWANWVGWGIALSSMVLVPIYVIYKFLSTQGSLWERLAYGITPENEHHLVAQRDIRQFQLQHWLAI

[4] = target: T3, Sodium-dependent noradrenaline transporter; assay: biochemical
Description: Displacement of [3H]nisoxetine from human norepinephrine transporter expressed in MDCK-Net6 cells

[5] = target: T1, Sodium-dependent dopamine transporter; assay: biochemical
[6] = target: T2, Sodium-dependent serotonin transporter; type: cell-based, JAR
Target sequence in this assay (P31645 whole entry): as the sequence (P31645 whole entry, looked up) above

Homo sapiens = organism: Homo sapiens; assay: Selectivity ratio of IC50 for human NET over IC50 for human SERT
Transporter = Transporter (Rattus norvegicus, UniProt Q63380)
Chain of Transporter (Q63380 whole entry): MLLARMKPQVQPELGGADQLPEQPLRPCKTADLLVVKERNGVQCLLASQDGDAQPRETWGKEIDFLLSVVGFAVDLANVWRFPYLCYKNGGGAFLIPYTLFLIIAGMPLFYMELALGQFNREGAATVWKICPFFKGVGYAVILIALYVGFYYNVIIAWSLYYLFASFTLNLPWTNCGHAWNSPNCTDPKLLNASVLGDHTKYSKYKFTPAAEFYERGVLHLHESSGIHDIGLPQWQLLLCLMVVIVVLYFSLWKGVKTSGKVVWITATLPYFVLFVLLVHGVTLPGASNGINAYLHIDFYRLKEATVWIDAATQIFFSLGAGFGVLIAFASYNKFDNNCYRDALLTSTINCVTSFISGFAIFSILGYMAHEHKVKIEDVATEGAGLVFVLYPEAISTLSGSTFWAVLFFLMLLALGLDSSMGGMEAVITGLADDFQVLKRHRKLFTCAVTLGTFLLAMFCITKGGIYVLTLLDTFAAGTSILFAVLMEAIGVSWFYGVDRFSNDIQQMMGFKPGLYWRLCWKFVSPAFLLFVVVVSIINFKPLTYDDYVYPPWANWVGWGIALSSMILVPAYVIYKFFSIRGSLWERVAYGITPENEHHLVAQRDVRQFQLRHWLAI
Description: Inhibition of norepinephrine uptake at rat brain norepinephrine transporter

[7] = target: T3, Sodium-dependent noradrenaline transporter; assay: Inhibition of norepinephrine uptake at human norepinephrine transporter expressed in MDCK-Net6 cells at 1000 nM; type: cell-based
[8] = Plasma concentration in Sprague-Dawley rat at 30 mg/kg, ip after 1 hr; type: ADME, organism-based; set-up: dose 30 mg/kg, route intraperitoneal
[9] = Plasma concentration in Sprague-Dawley rat at 30 mg/kg, ip after 8 hrs; type: ADME, organism-based; set-up: dose 30 mg/kg, route intraperitoneal
Rattus norvegicus [10] = assay: Effect on ovariectomy-induced thermoregulatory dysfunction in telemetry Sprague-Dawley rat model assessed as mean reduction in tail skin temperature at 30 mg/kg, po after 3 hrs relative to control; type: functional
[11] = target: T4, 5-hydroxytryptamine receptor 7 (Homo sapiens, UniProt P34969); assay: Inhibition of 5HT7 receptor by competition radioligand binding assay
[12] = Cmax in Sprague-Dawley rat at 30 mg/kg, ip; type: ADME, organism-based; set-up: dose 30 mg/kg, route intraperitoneal; settings: in vivo
[13] = Half life in Sprague-Dawley rat at 30 mg/kg, po; type: ADME, organism-based; set-up: dose 30 mg/kg, route oral; settings: in vivo
[14] = Plasma concentration in Sprague-Dawley rat at 1 mg/kg, iv after 1 hr; type: ADME, organism-based; set-up: dose 1 mg/kg, route intravenous
Mus musculus [15] = assay: Antidepressant activity in Swiss Webster mouse assessed as decrease in immobility time at 30 mg/kg, ip after 30 mins by tail suspension test; type: functional; set-up: scale not given: the % may be the effect or the level left; settings: route intraperitoneal
[16] = target: T4, 5-hydroxytryptamine receptor 7; assay: Activity at 5HT7 receptor assessed as calcium mobilization by FLIPR; type: functional
[17] = target: T5, 5-hydroxytryptamine receptor 2A (Homo sapiens, UniProt P28223); assay: Activity at 5HT2A receptor assessed as calcium mobilization by FLIPR; type: functional
[18] = Plasma concentration in Sprague-Dawley rat at 30 mg/kg, po after 6 hrs; type: ADME, organism-based; set-up: dose 30 mg/kg, route oral
[19] = target: T6, 5-hydroxytryptamine receptor 6 (Homo sapiens, UniProt P50406); assay: Activity at 5HT6 receptor assessed as calcium mobilization by FLIPR; type: functional
T6 sequence (P50406 whole entry): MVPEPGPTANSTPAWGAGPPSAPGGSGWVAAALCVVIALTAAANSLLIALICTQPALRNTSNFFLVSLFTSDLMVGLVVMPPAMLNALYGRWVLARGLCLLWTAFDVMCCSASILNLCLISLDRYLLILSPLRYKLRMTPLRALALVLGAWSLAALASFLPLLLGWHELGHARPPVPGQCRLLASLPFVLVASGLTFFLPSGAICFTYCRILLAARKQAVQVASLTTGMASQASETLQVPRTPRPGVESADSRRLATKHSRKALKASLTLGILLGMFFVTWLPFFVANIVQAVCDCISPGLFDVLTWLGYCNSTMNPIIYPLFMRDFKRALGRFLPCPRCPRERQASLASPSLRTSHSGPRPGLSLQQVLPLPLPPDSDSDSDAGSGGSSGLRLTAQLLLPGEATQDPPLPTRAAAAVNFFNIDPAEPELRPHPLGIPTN

[20] = target: T6, 5-hydroxytryptamine receptor 6; assay: Inhibition of 5HT6 receptor by competition radioligand binding assay
[21] = Plasma concentration in Sprague-Dawley rat at 30 mg/kg, po after 4 hrs; type: ADME, organism-based; set-up: dose 30 mg/kg, route oral
[22] = Plasma concentration in Sprague-Dawley rat at 30 mg/kg, po after 8 hrs; type: ADME, organism-based; set-up: dose 30 mg/kg, route oral
[23] = target: T7, 5-hydroxytryptamine receptor 1B (Homo sapiens, UniProt P28222); assay: Inhibition of 5HT1B receptor by competition radioligand binding assay
T7 sequence (P28222 whole entry): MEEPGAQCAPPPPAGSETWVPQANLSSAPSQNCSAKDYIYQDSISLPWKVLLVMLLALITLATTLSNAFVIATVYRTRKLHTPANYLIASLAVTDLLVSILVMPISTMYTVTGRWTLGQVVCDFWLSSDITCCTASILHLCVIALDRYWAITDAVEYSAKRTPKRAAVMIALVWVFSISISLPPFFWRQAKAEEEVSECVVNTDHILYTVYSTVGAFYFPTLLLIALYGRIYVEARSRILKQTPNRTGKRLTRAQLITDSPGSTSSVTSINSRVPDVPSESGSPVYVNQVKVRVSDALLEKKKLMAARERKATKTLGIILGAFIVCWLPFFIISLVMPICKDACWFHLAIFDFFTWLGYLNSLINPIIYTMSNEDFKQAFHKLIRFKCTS

[24] = Plasma concentration in Sprague-Dawley rat at 30 mg/kg, po after 0.5 hrs; type: ADME, organism-based; set-up: dose 30 mg/kg, route oral
[25] = target: T5, 5-hydroxytryptamine receptor 2A; assay: Inhibition of 5HT2A receptor by competition radioligand binding assay
[26] = Plasma concentration in Sprague-Dawley rat at 1 mg/kg, iv after 0.033 hrs; type: ADME, organism-based; set-up: dose 1 mg/kg, route intravenous
[27] = AUC (0 to infinity) in Sprague-Dawley rat at 1 mg/kg, iv; type: ADME, organism-based; set-up: time infinity, dose 1 mg/kg, route intravenous; settings: plasma
[28] = Cmax in Sprague-Dawley rat at 30 mg/kg, po; type: ADME, organism-based; set-up: dose 30 mg/kg, route oral; settings: in vivo
[29] = AUC (0 to infinity) in Sprague-Dawley rat at 30 mg/kg, po; type: ADME, organism-based; set-up: time infinity, dose 30 mg/kg, route oral; settings: plasma
[30] = Plasma concentration in Sprague-Dawley rat at 30 mg/kg, ip after 6 hrs; type: ADME, organism-based; set-up: dose 30 mg/kg, route intraperitoneal
[31] = target: T8, 5-hydroxytryptamine receptor 2B (Homo sapiens, UniProt P41595); assay: Activity at 5HT2B receptor assessed as calcium mobilization by FLIPR; type: functional
T8 sequence (P41595 whole entry): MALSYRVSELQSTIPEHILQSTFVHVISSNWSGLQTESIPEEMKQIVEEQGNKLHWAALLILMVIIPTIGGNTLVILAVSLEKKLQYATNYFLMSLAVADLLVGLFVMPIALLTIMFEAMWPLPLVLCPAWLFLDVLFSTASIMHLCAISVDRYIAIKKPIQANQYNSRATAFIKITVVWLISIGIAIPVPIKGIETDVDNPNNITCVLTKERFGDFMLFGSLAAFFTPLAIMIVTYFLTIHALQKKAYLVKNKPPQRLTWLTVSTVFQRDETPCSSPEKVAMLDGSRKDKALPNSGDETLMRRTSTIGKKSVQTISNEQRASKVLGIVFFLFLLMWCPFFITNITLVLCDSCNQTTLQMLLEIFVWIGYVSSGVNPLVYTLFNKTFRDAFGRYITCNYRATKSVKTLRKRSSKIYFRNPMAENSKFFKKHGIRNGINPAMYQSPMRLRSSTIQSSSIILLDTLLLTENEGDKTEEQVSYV

[32] = Activity at adrenergic receptor 1 alpha assessed as calcium mobilization by FLIPR
[33] = Plasma concentration in Sprague-Dawley rat at 1 mg/kg, iv after […]; type: ADME, organism-based; set-up: dose 1 mg/kg, route intravenous
[34] = Plasma concentration in Sprague-Dawley rat at 30 mg/kg, ip after 0.033 hrs; type: ADME, organism-based; set-up: dose 30 mg/kg, route intraperitoneal
Mus musculus [35] = assay: Antidepressant activity in Swiss Webster mouse assessed as decrease in immobility time at 17 mg/kg, ip after 30 mins by tail suspension test; type: functional; set-up: scale not given: the % may be the effect or the level left; settings: route intraperitoneal
[36] = Plasma concentration in Sprague-Dawley rat at 30 mg/kg, ip after […]; type: ADME, organism-based; set-up: dose 30 mg/kg, route intraperitoneal
[37] = AUC (0 to infinity) in Sprague-Dawley rat at 30 mg/kg, ip; type: ADME, organism-based; set-up: time infinity, dose 30 mg/kg, route intraperitoneal; settings: plasma
[38] = Plasma concentration in Sprague-Dawley rat at 30 mg/kg, po after 1 hr; type: ADME, organism-based; set-up: dose 30 mg/kg, route oral
[39] = Inhibition of adrenergic receptor 1 alpha by competition radioligand binding assay
[40] = target: T9, 5-hydroxytryptamine receptor 1D (Homo sapiens, UniProt P28221); assay: Inhibition of 5HT1D receptor by competition radioligand binding assay
T9 sequence (P28221 whole entry): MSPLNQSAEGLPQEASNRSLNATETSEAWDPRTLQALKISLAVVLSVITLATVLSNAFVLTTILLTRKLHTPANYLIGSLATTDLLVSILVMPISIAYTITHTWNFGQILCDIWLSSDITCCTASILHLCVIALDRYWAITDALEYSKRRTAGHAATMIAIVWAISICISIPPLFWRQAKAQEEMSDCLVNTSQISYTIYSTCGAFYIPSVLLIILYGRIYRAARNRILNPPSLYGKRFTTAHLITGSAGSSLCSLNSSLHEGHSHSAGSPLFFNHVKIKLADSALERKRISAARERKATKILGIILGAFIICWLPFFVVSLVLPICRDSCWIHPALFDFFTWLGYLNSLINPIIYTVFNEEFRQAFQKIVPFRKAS

[41] = target: T8, 5-hydroxytryptamine receptor 2B; assay: Inhibition of 5HT2B receptor by competition radioligand binding assay
[42] = Plasma concentration in Sprague-Dawley rat at 30 mg/kg, po after 2 hrs; type: ADME, organism-based; set-up: dose 30 mg/kg, route oral
[43] = Plasma concentration in Sprague-Dawley rat at 30 mg/kg, ip after 4 hrs; type: ADME, organism-based; set-up: dose 30 mg/kg, route intraperitoneal
Rattus norvegicus [44] = assay: Effect on ovariectomy-induced thermoregulatory dysfunction in telemetry Sprague-Dawley rat model assessed as mean reduction in tail skin temperature at 30 mg/kg, ip after 6.5 hrs relative to control; type: functional; settings: route intraperitoneal
[45] = Plasma concentration in Sprague-Dawley rat at 1 mg/kg, iv after 4 hrs; type: ADME, organism-based; set-up: dose 1 mg/kg, route intravenous
[46] = Half life in Sprague-Dawley rat at 30 mg/kg, ip; type: ADME, organism-based; set-up: dose 30 mg/kg, route intraperitoneal; settings: in vivo
[47] = target: T7, 5-hydroxytryptamine receptor 1B; assay: Activity at 5HT1B receptor assessed as calcium mobilization by FLIPR; type: functional
[48] = Plasma concentration in Sprague-Dawley rat at 1 mg/kg, iv after 0.5 hrs; type: ADME, organism-based; set-up: dose 1 mg/kg, route intravenous
[49] = Plasma concentration in Sprague-Dawley rat at 1 mg/kg, iv after 6 hrs; type: ADME, organism-based; set-up: dose 1 mg/kg, route intravenous
[50] = Plasma concentration in Sprague-Dawley rat at 30 mg/kg, po after […]; type: ADME, organism-based; set-up: dose 30 mg/kg, route oral
[51] = target: T9, 5-hydroxytryptamine receptor 1D; assay: Activity at 5HT1D receptor assessed as calcium mobilization by FLIPR; type: functional
[52] = Plasma concentration in Sprague-Dawley rat at 1 mg/kg, iv after 2 hrs; type: ADME, organism-based; set-up: dose 1 mg/kg, route intravenous
[53] = Plasma concentration in Sprague-Dawley rat at 30 mg/kg, ip after 2 hrs; type: ADME, organism-based; set-up: dose 30 mg/kg, route intraperitoneal
[54] = Plasma concentration in Sprague-Dawley rat at 30 mg/kg, ip after 0.5 hrs; type: ADME, organism-based; set-up: dose 30 mg/kg, route intraperitoneal

T1 sequence (Q01959 whole entry): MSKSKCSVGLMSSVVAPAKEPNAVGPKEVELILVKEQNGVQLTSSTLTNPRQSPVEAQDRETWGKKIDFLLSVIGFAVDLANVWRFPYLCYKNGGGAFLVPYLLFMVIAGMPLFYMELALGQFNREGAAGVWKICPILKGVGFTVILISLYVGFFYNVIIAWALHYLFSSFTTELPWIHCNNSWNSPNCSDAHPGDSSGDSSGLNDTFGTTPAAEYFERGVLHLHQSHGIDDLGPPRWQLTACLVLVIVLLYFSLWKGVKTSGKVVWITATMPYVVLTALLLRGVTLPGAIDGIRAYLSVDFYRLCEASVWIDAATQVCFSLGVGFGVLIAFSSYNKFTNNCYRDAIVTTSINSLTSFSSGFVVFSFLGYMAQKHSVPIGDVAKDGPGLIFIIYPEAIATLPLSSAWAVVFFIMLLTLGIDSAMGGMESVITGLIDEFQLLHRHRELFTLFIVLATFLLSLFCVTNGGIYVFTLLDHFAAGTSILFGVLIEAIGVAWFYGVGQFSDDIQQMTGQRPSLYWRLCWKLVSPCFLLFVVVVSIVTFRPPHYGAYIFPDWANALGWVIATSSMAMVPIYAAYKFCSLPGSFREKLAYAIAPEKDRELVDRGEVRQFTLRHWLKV

SMILES: OC1(C(CN2CCNCC2)c2ccc(F)cc2)CCCCC1 (stereo not drawn)
- Activity [1]: 22%
- IC50 [3]: 1.5 µM
- Ki [4]: 1.03 µM
- inhibition [2]: 29%

SMILES: OC1([C@@H](CN2CCNCC2)c2cccc(Cl)c2)CCCCC1
- Ki [5]: 0.34 µM
- IC50 [6]: 6.1 µM
- IC50 [3]: 0.54 µM
- Ki [4]: 0.214 µM

SMILES: COc1ccc(C(CN2CCN(C)CC2)C2(O)CCCCC2)cc1 (stereo not drawn)
- inhibition [7]: 34%
- Activity [1]: 0%
- inhibition [2]: 11%

SMILES: OC1(C(CN2CCNCC2)c2cccc(Cl)c2)CCCCC1 (stereo not drawn)
- Ki [5]: 0.045 µM
- IC50 [6]: 4.96 µM
- IC50 [3]: 0.038 µM
- Ki [4]: 0.018 µM

Now from value to molecule, other results behind:

- Activity [1]: 3%
- inhibition [2]: 12%
SMILES: CN1CCN(CC(c2cccc(OC(F)(F)F)c2)C2(O)CCCCC2)CC1 (stereo not drawn)

- Ratio IC50 (Homo sapiens): 0.42
- Activity [1]: 9%
- IC50 [6]: 0.088 µM
- IC50 [3]: 0.208 µM
- Ki [4]: 0.316 µM
- IC50 (Transporter): 0.62 µM
SMILES: COc1cccc(C(CN(C)C)C2(O)CCCCC2)c1 (stereo not drawn)

- Ratio IC50 (Homo sapiens): 16.7
- Activity [1]: 15%
- IC50 [6]: 0.534 µM
- IC50 [3]: 0.032 µM
- Ki [4]: 0.021 µM
- IC50 (Transporter): 0.36 µM
SMILES: CN(C)CC(c1cccc(C(F)(F)F)c1)C1(O)CCCCC1 (stereo not drawn)

- concentration at 1 h [8]: 1960 ng/mL
- concentration at 8 h [9]: 143 ng/mL
- IC50 [11]: > 10 µM
- Cmax [12]: 2690 ng/mL
- half-life [13]: 1.6 h
- concentration at 1 h [14]: 109 ng/mL
- EC50 [16]: > 10 µM
- EC50 [17]: > 10 µM
- concentration at 6 h [18]: 36.5 ng/mL
- EC50 [19]: > 10 µM
- IC50 [20]: > 10 µM
- concentration at 4 h [21]: 79.5 ng/mL
- concentration at 8 h [22]: 14.3 ng/mL
- IC50 [23]: > 10 µM
- concentration at 0.5 h [24]: 323 ng/mL
- IC50 [25]: > 10 µM
- concentration at 0.033 h [26]: 164 ng/mL
- Activity [1]: 6%
- AUC(0-inf) [27]: 367 ng·h/mL
- Cmax [28]: 324 ng/mL
- AUC(0-inf) [29]: 931 ng·h/mL
- concentration at 6 h [30]: 303 ng/mL
- EC50 [31]: > 10 µM
- EC50 [32]: > 10 µM
- concentration at […] [33]: 225 ng/mL
- concentration at 0.033 h [34]: 942 ng/mL
- concentration at […] [36]: 1580 ng/mL
- AUC(0-inf) [37]: 6160 ng·h/mL
- concentration at 1 h [38]: 304 ng/mL
- IC50 [39]: > 10 µM
- inhibition [2]: 3%
- IC50 [40]: > 10 µM
- IC50 [41]: > 10 µM
- concentration at 2 h [42]: 182 ng/mL
- concentration at 4 h [43]: 520 ng/mL
- concentration at 4 h [45]: 19.1 ng/mL
- half-life [46]: 2.3 h
- EC50 [47]: > 10 µM
- concentration at 0.5 h [48]: 187 ng/mL
- concentration at 6 h [49]: 2.98 ng/mL
- concentration at […] [50]: 115 ng/mL
- EC50 [51]: > 10 µM
- concentration at 2 h [52]: 55.4 ng/mL
- concentration at 2 h [53]: 735 ng/mL
- concentration at 0.5 h [54]: 2160 ng/mL
SMILES: CN1CCN(C[C@H](c2cccc(OC(F)(F)F)c2)C2(O)CCCCC2)CC1.Cl.Cl
- Activity (Rattus norvegicus [10]): -2.16 °C
- Activity (Mus musculus [15]): 53%
- Activity (Mus musculus [35]): 38%
- Activity (Rattus norvegicus [44]): -2.75 °C
